Assay [1] has as its system rifampin resistant (RIF:rpoBS450L) strain (ATCC #35838). The assay is classed as cell-based, Mycobacterium tuberculosis.
For assay [2], the system named is isoniazid resistant (INH: katGdel) strain (MS015). The assay is described as follows: microbe, parasite or virus in culture. The assay is classed as cell-based. The following applies: Mycobacterium tuberculosis, H37RV, read-out: MIC H37Rv (katG^del).
Assay [3] deals with moxifloxacin resistant (MOX: gyrD94K) strain (MOX3). It counts as cell-based, Mycobacterium tuberculosis.

SMILES strings stand for the structures. Values after ≈ are worked out from the molar mass of the structure shown.

On to `CC(C)N(C(=O)CCc1nc2cc(Cl)c(Cl)cc2[nH]1)C(C)C` [Example 19], for which the “MIC H37Rv (rpoB^S450L)” value in assay [1] is at most 0.125 µg/mL. Besides, the MIC in assay [2] was at most 0.125 µg/mL. Also, the “MIC H37Rv (gyrA^D94K)” value in assay [3] is at most 0.125 µg/mL.
For `Cc1cc2nc(CCC(=O)N(C(C)C)C(C)C)[nH]c2cc1C` [Example 21A], the “MIC H37Rv (rpoB^S450L)” value in assay [1] amounted to 0.25 µg/mL (≈ 0.829 µM). Further, the MIC in assay [2] is at most 0.125 µg/mL. In assay [3], the “MIC H37Rv (gyrA^D94K)” value is at most 0.125 µg/mL.
As to `Cc1cc2nc(SCC(=O)N(C(C)C)C(C)C)[nH]c2cc1C` [Example 2, 2-[(5,6-dimethyl-1H-1,3-benzodiazol-2-yl)sulfanyl]-N,N-bis(propan-2-yl)acetamide], in assay [1], the “MIC H37Rv (rpoB^S450L)” value worked out at 0.25 µg/mL (≈ 0.783 µM). Moreover, the MIC in assay [2] amounted to 0.5 µg/mL (≈ 1.57 µM). The “MIC H37Rv (gyrA^D94K)” value in assay [3] is 0.5 µg/mL (≈ 1.57 µM).

These data come from patent US20240132479A1, “THERAPEUTIC COMPOUNDS AND USES THEREOF” (Board of Trustees of Michigan State University, priority 2021, published 2024).
